Earlier results, collected in article PMC3674230 (Chemical communications (Cambridge, England), 2012).

System: Zn(II)-dependent matrix metalloproteinases (MMP)
Conditions: direct metal coordination

IC50: ~25 mM
Compound: CC(=O)NO [acetohydroxamic acid]
